# Legend:
# MPTP-treated mice = assay: Spontaneous locomotor activity in MPTP-treated mice (Parkinson's disease model); format: in vivo, C57BL/6 mice (male); conditions: MPTP 40 mg/kg x 2 mice, compound (IX) alone 3 mg/kg p.o., P < 0.05 vs MPTP-treated control group
# Description: Mice injected with a dopaminergic toxin, MPTP were used as a model for Parkinson's disease and the effects of single administration of compound (IX) on the reduction of the spontaneous locomotor activity caused by MPTP-treatment were examined.
# MPTP (40 mg/kg, i.p., saline) was injected twice at 24-hr intervals to C57BL/6 mice (male), and the day after the last administration, the mice were placed in locomotor activity measuring apparatus. After 30 min, compound (IX) alone (0.3, 1, 3 mg/kg, p.o.) was administered.
# 6-OHDA-treated mice = assay: Spontaneous locomotor activity in mice injected intracerebroventricularly with 6-OHDA (Parkinson's disease model); format: in vivo, C57BL/6 mice (male); conditions: 6-OHDA mice
# Description: Mice injected intracerebroventricularly with a monoaminergic toxin, 6-OHDA were used as a model for Parkinson's disease.
# To C57BL/6 mice (male) were administrated desipramine (desipramine (25 mg/kg, i.p., 0.5%), lactic acid) and 6-OHDA (40 μg/μl/mouse, 0.2% ascorbic acid) was injected in the cerebroventricule after 30 min. The mice were placed in the locomotor activity measuring apparatus after one day. Compound (IX) (0.3, 1 mg/kg), with or without L-DOPA (10 mg/kg, i.p., dissolved in 0.1N HCl and diluted with distilled water or injection, Otsuka Pharmaceutical), was administrated after 90 min, then the spontaneous locomotor activity was measured for 5 hours. When L-DOPA was administrated, mice were pre-treated with carbidopa (25 mg/kg, i.p., 0.5% lactic acid) before 30 min.
# [1] = tested on: reserpine-induced cataleptic posture; assay: Catalepsy test in mice pre-treated with reserpine; format: in vivo, ddy mice (male); conditions: 1 hour after administration
# Description: The effects of compound (IX) in single administration and in combination with L-DOPA on cataleptic responses were examined in mice pre-treated with a monoamine-depleting drug, reserpine. Reserpine (5 mg/kg, i.p., Apoplon Inj, Daiichi Pharmaceutical) was administrated to ddy mice (male). On the next day, compound (IX) (0.3, 1, 3 mg/kg, p.o.) with or without L-DOPA (25, 100 mg/kg, i.p., dissolved in 0.1N HCl and diluted with distilled water for injection (Otsuka Pharmaceutical)) was administrated to the mice and catalepsy test was performed after 1 hour. When L-DOPA was administrated, mice were pre-treated with carbidopa (25 mg/kg, i.p., 0.5% lactic acid) before 30 min. The forelimbs or hindlimbs of each mouse were placed on a 4.5 cm high horizontal bar and the time was measured (cut off time 30 sec) until both legs reach the floor. The cataleptic responses were scored as follows (less than 5 sec.: 0 point, 5 sec. to less than 10 sec.: 1 point, 10 sec to less than 15 sec.: 2 points, 15 sec. to than 20 sec.: 3 points, 20 sec. to less than 25 sec.: 4 points, 25 sec. to less than 30 sec.: 5 points, 30 sec. or more: 6 points). For forelimbs, the scores for 3 repetitive tests were summated. For hindlimbs, the tests were performed 5 times and of which 3 scores were summated excluding the highest and lowest scores. The catalepsy scores were calculated as the total scores for forelimbs and hindlimbs.
# normal mice = assay: Spontaneous locomotor activity after oral administration to normal mice (SCANET apparatus); format: in vivo, C57BL/6 mice (male); conditions: p.o.
# Description: The enhancing effects of compound (IX) on the spontaneous locomotor activity were examined in normal mice.
# Compound (IX) was orally administrated to C57BL/6 mice (male) and the spontaneous locomotor activity was measured with a locomotor activity measuring apparatus (SCANET, TOYO sangyo). Mice were familiarized to the cage of the apparatus for at least 60 min. Compound (IX) (1,3,10 mg/kg) or vehicle (vehicle, distilled water Otsuka) was administrated orally. The spontaneous locomotor activity was measured for 5 hours after the mice were returned to the cage.
structure (smiles),measurement,setting,value
C[C@@H]1OC(=O)N[C@@H]1C(=O)NC(Cc1cscn1)C(=O)N1CCC[C@H]1C (stereo in doubt) [Compound (IX)],"spontaneous locomotor activity, Total",MPTP-treated mice,5463 ± 700
same,"spontaneous locomotor activity, Total",MPTP-treated mice; listed as compound (IX),significantly increased
same,"spontaneous locomotor activity, Total","6-OHDA-treated mice; compound (IX) 1 mg/kg p.o. in combination with L-DOPA 10 mg/kg i.p. (carbidopa pre-treatment), 5 hours, P < 0.01 vs 6-OHDA-treated group",14468 ± 3618
same,"spontaneous locomotor activity, Total","6-OHDA-treated mice; compound (IX) 1 mg/kg p.o. in combination with L-DOPA 10 mg/kg i.p. (carbidopa pre-treatment), 5 hours, P < 0.01 vs 6-OHDA-treated group, listed as compound (IX)",significant and remarkable increase
same,"spontaneous locomotor activity, Total","6-OHDA-treated mice; compound (IX) 1 mg/kg p.o. in single administration, measured for 5 hours, 1 mg/kg",2512 ± 333
same,"spontaneous locomotor activity, Total","6-OHDA-treated mice; compound (IX) 1 mg/kg p.o. in single administration, measured for 5 hours, listed as compound (IX), 1 mg/kg",did not show significant increase
same,"catalepsy score, mean",[1]; compound (IX) 1 mg/kg p.o. + L-DOPA 100 mg/kg i.p.,2.3
same,"catalepsy score, mean","[1]; compound (IX) 1 mg/kg p.o. + L-DOPA 100 mg/kg i.p., listed as compound (IX)",significant depression effect
same,"catalepsy score, mean",[1]; compound (IX) 3 mg/kg p.o. + L-DOPA 100 mg/kg i.p.,9.2
same,"catalepsy score, mean","[1]; compound (IX) 3 mg/kg p.o. + L-DOPA 100 mg/kg i.p., listed as compound (IX)",significant depression effect
same,dose at which the spontaneous locomotor activity was increased,normal mice,≥ 3 mg/kg
